Experimental data published in patent US20250176548A1, “POLYMERIC IMIDAZOLIUM COMPOUNDS FOR ENHANCING THE ACTIVITY OF ANTIMICROBIAL AGENTS” (BASF SE, priority 2022, published 2025).

Legend:
[1] = test system: Escherichia coli (E. coli DSM 682); assay: Bactericidal activity of cleaner/disinfecting formulations, DIN EN 1276-2010, dirty conditions; format: cell-based; conditions: 0.3% bovine albumin, 35° C., 5 min contact time
Procedure: (§1) For biological activity testing, the following microorganisms were used: • Escherichia coli(E. coli DSM 682) • Salmonella enterica subsp. enterica (S enterica ATCC 10708)
(§2) The imidazolium polymer of example 1 (imidazolium polymer 1) and benzalkonium chloride (BAC) were formulated into various dilutable concentrated hard-surface cleaners. The finished formulations were pre-dissolved 1:200 in standardized hard water (DIN EN 1276-2010) and then diluted to 80% by adding 1 ml of the inoculate and 1 ml of bovine albumin solution to 8 ml of the pre-dissolved cleaner, so that in-test a dilution of 1:250 was obtained. The amounts relate to active substance.
(§3) Antimicrobial testing of the above formulations in 1:250 dilution was done according to European Standard (DIN EN 1276-2010) under dirty conditions, i.e. additional soiling of 0.3% bovine albumin at 35° C. and 5 min contact time. Neutralization was done using the Saponin-containing neutralizer as described in DIN EN 1276 (30 g/l Polysorbate 80+30 g/l Saponin+3 g/l Lecithin). Results are documented in the table below as logarithmic reduction (Ig R) in comparison to the number of microorganisms used for the test.
as §2, with “didecyldimethylammonium” for “benzalkonium”, “(DDAC)” for “(BAC)”
as §3, with “80+30 g/I” for “80+30 g/l”, “Saponin+3 g/I” for “Saponin+3 g/l”

[2] = test system: Salmonella enterica subsp. enterica (S enterica ATCC 10708); assay: as above; format: cell-based; conditions: BAC 40 ppm in cleaner diluted 1:250; 0.3% bovine albumin, 35° C., 5 min contact time
Procedure: as §1, §2, §3

SMILES | E. coli logarithmic reduction (lg R) ([1]; DDAC 10 ppm in cleaner diluted 1:250) | E. coli logarithmic reduction (lg R) ([1]; DDAC 20 ppm in cleaner diluted 1:250) | S. enterica logarithmic reduction (lg R) [2] [lg R] | E. coli logarithmic reduction (lg R) ([1]; BAC 20 ppm in cleaner diluted 1:250) | E. coli logarithmic reduction (lg R) ([1]; BAC 40 ppm in cleaner diluted 1:250)
CCCCCCCCCC[N+](C)(C)CCCCCCCCCC.[Cl-] [DDAC, didecyldimethylammonium chloride] | 0.2 | 1.2 |  |  | 
CCCCCCCCCCCC[N+](C)(C)Cc1ccccc1.[Cl-] [BAC, lauryl dimethyl benzyl ammonium chloride] |  |  | 0.5 | 0.5 | 2.7
